Reference: ChEMBL document CHEMBL4699612, “Discovery of thiosemicarbazone-containing compounds with potent anti-proliferation activity against drug-resistant K562/A02 cells” (Bioorg Med Chem Lett, 2020)

Tests used:
[1] = system: K562; assay: Antiproliferative activity against human K562 cells by MTT assay; type: functional, cell-based
[2] = system: K562/A02; assay: Antiproliferative activity against human K562/A02 cells overexpressing P-gp by MTT assay; type: functional, cell-based
[3] = Resistance index, ratio of IC50 for human K562/A02 cells to IC50 for human K562 cells; type: functional; design: reference not given here
[4] = molecular target: Histone deacetylase 1 (Homo sapiens, UniProt Q13547); assay: Inhibition of recombinant human HDAC1 using Boc-Lys(Ac)-AMC as substrate incubated for 60 mins by fluorimetric assay
Chain of Histone deacetylase 1 (Q13547 whole entry): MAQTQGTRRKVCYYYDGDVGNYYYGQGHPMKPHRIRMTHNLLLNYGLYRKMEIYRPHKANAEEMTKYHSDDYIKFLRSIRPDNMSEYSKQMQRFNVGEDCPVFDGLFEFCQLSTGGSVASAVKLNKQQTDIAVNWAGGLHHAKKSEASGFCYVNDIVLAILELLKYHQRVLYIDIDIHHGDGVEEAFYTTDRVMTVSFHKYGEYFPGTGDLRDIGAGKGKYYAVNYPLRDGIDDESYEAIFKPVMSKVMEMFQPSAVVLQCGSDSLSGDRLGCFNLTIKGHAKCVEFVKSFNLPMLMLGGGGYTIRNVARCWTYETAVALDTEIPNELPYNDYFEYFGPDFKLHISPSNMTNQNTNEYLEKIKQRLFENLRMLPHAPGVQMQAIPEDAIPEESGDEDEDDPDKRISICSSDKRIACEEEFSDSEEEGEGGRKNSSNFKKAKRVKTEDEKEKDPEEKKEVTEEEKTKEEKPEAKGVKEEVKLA

[5] = molecular target: T1, Histone deacetylase 8 (Homo sapiens, UniProt Q9BY41); assay: Inhibition of recombinant human HDAC8 using Boc-Lys(Ac)-AMC as substrate incubated for 60 mins by fluorimetric assay
T1 sequence (Q9BY41 whole entry): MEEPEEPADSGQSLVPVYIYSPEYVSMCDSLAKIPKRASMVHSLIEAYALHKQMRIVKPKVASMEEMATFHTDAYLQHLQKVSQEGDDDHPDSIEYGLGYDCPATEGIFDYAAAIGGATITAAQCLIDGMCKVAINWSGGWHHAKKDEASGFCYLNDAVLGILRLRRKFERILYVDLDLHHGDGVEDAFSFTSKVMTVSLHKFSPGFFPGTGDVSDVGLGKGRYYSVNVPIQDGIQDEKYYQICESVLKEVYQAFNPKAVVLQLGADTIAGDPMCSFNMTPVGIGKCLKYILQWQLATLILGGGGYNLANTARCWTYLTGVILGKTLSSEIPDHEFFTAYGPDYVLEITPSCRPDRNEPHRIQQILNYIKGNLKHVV

[6] = molecular target: T2, Protein deacetylase HDAC6 (Homo sapiens, UniProt Q9UBN7); assay: Inhibition of recombinant human HDAC6 using Boc-Lys(Ac)-AMC as substrate incubated for 60 mins by fluorimetric assay
T2 sequence (Q9UBN7 whole entry): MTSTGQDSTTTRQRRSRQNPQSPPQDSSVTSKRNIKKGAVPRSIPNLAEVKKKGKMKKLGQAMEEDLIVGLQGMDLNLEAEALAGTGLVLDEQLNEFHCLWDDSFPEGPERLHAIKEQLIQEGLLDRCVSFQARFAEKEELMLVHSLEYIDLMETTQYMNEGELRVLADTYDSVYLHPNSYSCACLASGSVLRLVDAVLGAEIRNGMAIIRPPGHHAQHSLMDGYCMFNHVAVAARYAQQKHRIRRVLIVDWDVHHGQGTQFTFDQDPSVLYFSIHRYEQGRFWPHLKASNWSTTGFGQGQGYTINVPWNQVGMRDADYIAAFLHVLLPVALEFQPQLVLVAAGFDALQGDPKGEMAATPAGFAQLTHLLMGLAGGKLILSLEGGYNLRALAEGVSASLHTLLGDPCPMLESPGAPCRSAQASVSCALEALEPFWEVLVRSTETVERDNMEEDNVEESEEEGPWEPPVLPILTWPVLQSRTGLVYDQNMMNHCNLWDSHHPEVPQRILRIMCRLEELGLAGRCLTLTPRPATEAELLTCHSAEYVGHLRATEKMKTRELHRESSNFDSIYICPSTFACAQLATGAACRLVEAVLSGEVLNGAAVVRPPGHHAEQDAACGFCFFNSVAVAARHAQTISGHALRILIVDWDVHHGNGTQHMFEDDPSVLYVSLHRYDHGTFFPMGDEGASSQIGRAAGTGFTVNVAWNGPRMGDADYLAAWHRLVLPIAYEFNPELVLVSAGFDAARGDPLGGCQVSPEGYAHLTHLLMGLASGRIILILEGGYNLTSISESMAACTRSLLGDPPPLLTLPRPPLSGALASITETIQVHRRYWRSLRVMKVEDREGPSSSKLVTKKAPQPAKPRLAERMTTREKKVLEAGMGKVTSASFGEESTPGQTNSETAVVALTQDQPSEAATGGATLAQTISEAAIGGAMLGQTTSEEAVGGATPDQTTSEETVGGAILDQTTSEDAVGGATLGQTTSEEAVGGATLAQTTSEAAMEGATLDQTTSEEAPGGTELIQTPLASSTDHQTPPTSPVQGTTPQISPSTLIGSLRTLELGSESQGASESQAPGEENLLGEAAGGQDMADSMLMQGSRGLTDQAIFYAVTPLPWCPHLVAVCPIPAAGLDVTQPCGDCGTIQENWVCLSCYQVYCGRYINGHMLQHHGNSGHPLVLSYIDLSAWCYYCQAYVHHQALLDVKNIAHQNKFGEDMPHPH

Row | SMILES | IC50 [1] [nM] | IC50 [2] [nM] | IC50 [4] [nM] | IC50 [5] [nM] | IC50 [6] [nM] | Ratio IC50 [3]
1 | C/C(=N\NC(=S)NCCCCCC(=O)NO)c1cccc(C(F)(F)F)c1 | 1400 | 890 |  |  |  | 0.64
2 | C/C(=N\NC(=S)NCCCC(=O)NO)c1ccc([N+](=O)[O-])cc1 | > 10000 | > 10000 |  |  |  | 
3 | Cc1ccc(NC(=O)c2ccc(CN3CCN(C)CC3)cc2)cc1Nc1nccc(-c2cccnc2)n1 [IMATINIB] | 610 | 980 |  |  |  | 1.61
4 | C/C(=N\NC(=S)NCCCCCC(=O)NO)c1ccc(F)cc1 | 1890 | 1020 | 69.2 | > 5000 | 62.9 | 0.54
5 | C/C(=N\NC(=S)NCCCCCC(=O)NO)c1cccc(Br)c1 | 1260 | 520 | 54.6 | > 5000 | 37.7 | 0.41
6 | C/C(=N\NC(=S)NCCCCCC(=O)NO)c1cccc(C)c1 | 3840 | 3570 |  |  |  | 0.93

Further lines, with some results ahead:

Row | IC50 [1] [nM] | IC50 [2] [nM] | IC50 [4] [nM] | IC50 [5] [nM] | IC50 [6] [nM] | SMILES | Ratio IC50 [3]
7 | 2890 | 4530 |  |  |  | O=C(CCCCCNC(=S)N/N=C(\c1ccccc1)c1ccc([N+](=O)[O-])cc1)NO | 1.57
8 | 3810 | 3640 |  |  |  | O=C(CCCCCNC(=S)NN=C(c1ccccc1)c1ccccc1)NO | 0.96
9 | 4340 | 3150 |  |  |  | Cc1ccc(/C(=N/NC(=S)NCCCCCC(=O)NO)c2ccccc2)cc1 | 0.73
10 | 3560 | 2910 |  |  |  | COc1ccccc1/C(=N/NC(=S)NCCCCCC(=O)NO)c1ccccc1 | 0.82
11 | 2330 | 1310 |  |  |  | O=C(CCCCCNC(=S)N/N=C(\c1ccccc1)c1ccccc1[N+](=O)[O-])NO | 0.56
